Measurements from PMC3145970, “Specific CLK Inhibitors from a Novel Chemotype for Regulation of Alternative Splicing” (Chemistry & Biology, 2011).

Assays:
[1] = system: flTF and asHTF mRNA in HMEC-1 cells; assay: TF isoform mRNA expression (RT-PCR)
Protocol: For inhibition experiments, HMEC-1 endothelial cells were switched to EC basal medium (without fetal calf serum) for 1 hr. […] Analysis of the TF isoform mRNA expression was done 1 hr post stimulation with TNF-α and assessment of the phosphorylation state of SR proteins by western blotting was performed 2 min post induction of the cells. Positive controls were stimulated only with TNF-α, and negative controls were untreated.

[2] = system: panel of 71 protein kinases; assay: Caliper mobility shift enzymatic kinase selectivity screening; assay type: biochemical; details: tested 0.1 nM to 10 μM; ATP at KM
Protocol: Enzymatic kinase selectivity screening was carried out using the Caliper mobility shift assay which is based on the difference in capillary electrophoresis mobility of a fluorescent tagged peptide as a result of the addition of a phosphate moiety by the studied kinase. The kinase reactions were started by addition of 4.5 μl substrate mix consisting of ATP and peptide substrate in assay buffer (50 mM HEPES [pH 7.5], 0.02% bovine serum albumin, 1 mM DTT, 0.02% Tween 20, 0.01 mM Na3VO4, 10 mM beta-glycerophosphate) and 4.5 μl enzyme solution in assay buffer. The peptide concentration was 2 μM. Concentrations for the enzyme, as well as for MgCl2 and MnCl2 were adjusted specifically to the requirements of the individual enzyme. ATP concentrations were adjusted to the KM values of the specific enzyme. After incubation for 60 min at 30°C the kinase reactions were stopped by addition of 16 μl stop solution (100 mM HEPES [pH 7.5], 5% DMSO, 0.1% coating reagent [Caliper Lifescience] 10 mM EDTA [pH 8.0], 0.015% BRIJ35). Stopped kinase reactions were analyzed in a LC3000 reader (Caliper Lifescience). Compounds were tested from 0.1 nM to 10 μM in eight steps.

CCOC(=O)c1c(/C(C#N)=C\N)c2ccc(Cl)c(Cl)c2n1C [KH-CB19, (E)-Ethyl 3-(2-Amino-1-Cyanovinyl)-6,7-Dichloro-1-Methyl-1H-Indole-2-Carboxylate]
TNF-α-induced mRNA expression of flTF and asHTF ([1]; HMEC-1, 10 μM inhibitor, 10 ng/ml TNF-α, 1 hr post stimulation): lowered TNF-α-induced expression of both TF mRNA splice variants to baseline
Basal mRNA expression of flTF and asHTF ([1]; resting HMEC-1, 10 μM inhibitor): significantly reduced the basal expression of flTF as well as asHTF
Inhibition of panel of 71 protein kinases [2]: No additional kinases from the panel were inhibited
